Our source for the IC50 values is US20050197350A1, “Novel quinoline, tetrahydroquinazoline, and pyrimidine derivatives and methods of treatment related to the use thereof” (TAISHO PHARMACEUTICAL CO., LTD., priority 2003, published 2005).

Structures can show the parent of a compound that is named as a salt.

The target in one assay is MCH receptor (Homo sapiens, UniProt Q99705). Briefly: High throughput functional screening FLIPR/FDSS6000 (intracellular Ca2+ evoked by MCH). To be noted: FLIPR/FDSS, antagonist activity vs 50 nM MCH; class by percent of control at 10^−7 M or IC50; read-out: class. In kind it is cell-based. The source says: High Throughput Functional Screening: FLIPR™
This assay utilized a non-endogenous, constitutively active version of the MCH receptor.
The concentration of free Ca^2+ in the cytosol of any cell is extremely low, whereas its concentration in the extracellular fluid and endoplasmic reticulum (ER) is very high. Thus, there is a large gradient tending to drive Ca^2+ into the cytosol across both the plasma membrane and ER. The FLIPR™ and FDSS6000™ systems (Molecular Devices Corporation, […] Photonics K.K.) are designed to perform functional cell-based assays, such as the measurement of intracellular calcium for high-throughput screening. The measurement of fluorescent is associated with calcium release upon activation of the Gq-coupled receptors.
Fluorometric Imaging Plate Reader system was used to allow for rapid, kinetic measurements of intracellular fluorescence in 96 well microplates (or 384 well microplates). Simultaneous measurements of fluorescence in all wells can be made by FLIPR or FDSS6000™ every second with high sensitivity and precision. These systems are ideal for measuring cell-based functional assays such as monitoring the intracellular calcium fluxes that occur within seconds after activation of the Gq coupled receptor.
Briefly, the cells are seeded into 96 well at 5.5×10^4 cells/well with complete culture media (Dulbecco's Modified Eagle Medium with 10% fetal bovine serum, 2 mM L-glutamine, 1 mM sodium pyruvate and 0.5 mg/ml G418, pH 7.4) for the assay next day. On the day of assay, the media is removed and the cells are incubated with 100 μl of loading buffer (4 μM Fluo4-AM in complete culture media containing 2.5 mM Probenicid, 0.5 mg/ml and 0.2% bovine serum albumin) in 5% CO2 incubator at 37° C. for 1 hr. The loading buffer is removed, and the cells are washed with wash buffer (Hank's Balanced Salt Solution containing 2.5 mM Probenicid, 20 mM HEPES, 0.5 mg/ml and 0.2% bovine serum albumin, pH 7.4)). One hundred fifty μl of wash buffer containing various concentrations of test compound is added to the cells, and the cells are incubated in 5% CO2 incubator at 37° C. for 30 min. […] 530 nm for 290 second. When antagonist activity of compound is tested, 50 nM of MCH is used.
Use of FLIPR™ and FDSS6000™ can be accomplished by following manufacturer's instruction (Molecular Device Corporation and […] Photonics K.K.).
Take `CNc1cc(C)nc(N[C@H]2CC[C@@H](NC(=O)COc3ccc(Cl)c(Cl)c3)CC2)n1` [Example 3360, 2-(3,4-dichlorophenoxy)-N-(cis-4-{[4-methyl-6-(methylamino)pyrimidin-2-yl]amino}cycohexyl)acetamide]: the IC50 is less than 0.05 µM.
On the same count and under the same terms, under `COc1ccccc1NC(=O)N[C@H]1CC[C@@H](Nc2ncc(C)c(N(C)C)n2)CC1` [Example 3321, N-(cis-4-{[4-(dimethylamino)-5-methylpyrimidin-2-yl]amino}cyclohexyl)-N′-(2-methoxyphenyl)urea] stands 0.05 to 0.2 µM.
Regarding `Cc1cnc(N[C@H]2CC[C@@H](NC(=O)Nc3cc(Cl)ccc3Cl)CC2)nc1N(C)C` [Example 3342, N-(2,5-dichlorophenyl)-N′-(cis-4-{[4-(dimethylamino)-5-methylpyrimidin-2-yl]amino}cyclohexyl)urea], the IC50 was in the range of 0.05 to 0.2 µM.
As to `Cc1cnc(N[C@H]2CC[C@@H](NC(=O)c3cccnc3S(=O)(=O)c3cccc(Br)c3)CC2)nc1N(C)C` [Example 3285, 2-[(3-bromophenyl)sulfonyl]-N-(cis-4-{[4-(dimethylamino)-5-methylpyrimidin-2-yl]amino}cyclohexyl)nicotinamide], the IC50 was in the range of 0.05 to 0.2 µM.
For `Cc1cccc(S(=O)(=O)c2ncccc2C(=O)N[C@H]2CC[C@@H](Nc3nc(C)cc(N(C)C)n3)CC2)c1` [Example 3376, N-(cis-4-{[4-(dimethylamino)-6-methylpyrimidin-2-yl]amino}cyclohexyl)-2-[(3-methylphenyl)sulfonyl]nicotinamide], the IC50 was greater than 0.2 µM.
For the molecule `Cc1cc(N[C@H]2CC[C@@H](C(=O)N[C@@H](C)c3ccccc3C(F)(F)F)CC2)nc2ccccc12` [Example 3314, cis-4-[(4-methylquinolin-2-yl)amino]-N-{(1S)-1-[2-(trifluoromethyl)phenyl]ethyl}cyclohexanecarboxamide], the IC50 is less than 0.05 µM.
For `Cc1cc(N[C@H]2CC[C@@H](C(=O)N[C@@H](C)c3ccc(Cl)cc3)CC2)nc2ccccc12` [Example 3306, cis-N-[(1S)-1-(4-chlorophenyl)ethyl]-4-[(4-methylquinolin-2-yl)amino]cyclohexanecarboxamide], the IC50 was 0.05 to 0.2 µM.

Staying with this assay, now noted: FLIPR/FDSS, antagonist activity vs 50 nM MCH; class by percent of control at 10^−7 M or IC50; table after the classification; read-out: class.
In the case of `CN(C)c1nc(N[C@H]2CC[C@@H](NC(=O)c3ccc(F)c(F)c3)CC2)ncc1Cl` [Example 3139, N-[cis-4-(5-Chloro-4-dimethylamino-pyrimidin-2-ylamino)-cyclohexyl]-3,4-difluoro-benzamide hydrochloride], the IC50 fell in the range of 0.05 to 0.2 µM.
`CN(C)c1cc(N[C@H]2CC[C@@H](NC(=O)c3cccnc3Oc3ccccc3)CC2)nc2ccccc12` [Example 3114, N-[cis-4-(4-Dimethylamino-quinolin-2-ylamino)-cyclohexyl]-2-phenoxy-nicotinamide hydrochloride]: the IC50 was less than 0.05 µM.
For `CN(C)c1nc(N[C@H]2CC[C@@H](NC(=O)c3cc([N+](=O)[O-])cn3C)CC2)nc2c1CCCC2` [Example 3194, 1-Methyl-4-nitro-1H-pyrrole-2-carboxylic acid [cis-4-(4-dimethylamino-5,6,7,8-tetrahydro-quinazolin-2-ylamino)-cyclohexyl]-amide hydrochloride], the IC50 is less than 0.05 µM.
On to `CN(C)c1ccnc(N[C@H]2CC[C@@H](NC(=O)c3cc(F)cc(F)c3)CC2)n1` [Example 3205, N-[cis-4-(4-Dimethylamino-pyrimidin-2-ylamino)-cyclohexyl]-3,5-difluoro-benzamide hydrochloride], for which the IC50 fell in the range of 0.05 to 0.2 µM.
As for `O=C(N[C@H]1CC[C@@H](Nc2ccc3ccccc3n2)CC1)c1ccc(F)c(F)c1` [Example 3031, 3,4-Difluoro-N-[cis-4-(quinolin-2-ylamino)-cyclohexyl]-benzamide hydrochloride], the IC50 was less than 0.05 µM.
Turning to `CCN(CC(=O)N[C@H]1CC[C@@H](Nc2nccc(N(C)C)n2)CC1)c1ccc(Cl)cc1` [Example 3203, C-[cis-(4-Chloro-phenyl)-ethyl-amino]-N-[4-(4-dimethylamino-pyrimidin-2-ylamino)-cyclohexyl]-acetamide dihydrochloride], the IC50 was less than 0.05 µM.
As to `COc1cc(OC)cc(C(=O)N[C@H]2CC[C@@H](Nc3ccc4ccccc4n3)CC2)c1` [Example 3039, 3,5-Dimethoxy-N-[cis-4-(quinolin-2-ylamino)-cyclohexyl]-benzamide hydrochloride], the IC50 is less than 0.05 µM.
On the same count and under the same terms, under `O=C(N[C@H]1CC[C@@H](Nc2ccc3ccccc3n2)CC1)c1csc([N+](=O)[O-])c1` [Example 3036, 5-Nitro-thiophene-3-carboxylic acid [cis-4-(quinolin-2-ylamino)-cyclohexyl]-amide hydrochloride] stands less than 0.05 µM.
For the molecule `O=C(N[C@H]1CC[C@@H](Nc2nccc(C(F)(F)F)n2)CC1)c1ccc(F)c(F)c1` [Example 3130, 3,4-Difluoro-N-[cis-4-(4-trifluoromethyl-pyrimidin-2-yl)amino-cyclohexyl]-benzamide hydrochloride], the IC50 is greater than 0.2 µM.
Regarding `CNc1nc(N[C@H]2CC[C@@H](NCCc3ccc(Br)cc3OC(F)(F)F)CC2)nc2c1CCCC2` [Example 10, N^2-{cis-4-[2-(4-Bromo-2-trifluorometboxy-phenyl)-ethylamino]-cyclohexyl}-N^4-methyl-5,6,7,8-tetrahydro-quinazoline-2,4-diamine dihydrochloride], the IC50 was 0.05 to 0.2 µM.
Regarding `CN(C)c1ccnc(N[C@H]2CC[C@@H](NC(=O)Nc3cccc(Cl)c3Cl)CC2)n1` [Example 3218, 1-(2,3-Dichloro-phenyl)-3-[cis-4-(4-dimethylamino-pyrimidin-2-ylamino)-cyclohexyl]-urea hydrochloride], the IC50 is greater than 0.2 µM.
Take `Cc1cc(N[C@H]2CC[C@@H](NC(=O)c3cccc(OC(F)(F)F)c3)CC2)nc2ccccc12` [Example 3158, N-[cis-4-(4-Methyl-quinolin-2-ylamino)-cyclohexyl]-3-trifluoromethoxy-benzamide hydrochloride]: the IC50 was less than 0.05 µM.
Take `Cc1cc(N[C@H]2CC[C@@H](NC(=O)Nc3cccc(Cl)c3Cl)CC2)nc2ccccc12` [Example 3072, 1-(2,3-Dichloro-phenyl)-3-[cis-4-(4-methyl-quinolin-2-ylamino)-cyclohexyl]-urea hydrochloride]: the IC50 is less than 0.05 µM.
For `Cc1cnc(N[C@H]2CC[C@@H](NC(=O)c3ccc(F)c(Cl)c3)CC2)nc1N` [Example 3392, N-[cis-4-(4-Amino-5-methyl-pyrimidin-2-ylamino)-cyclohexyl]-3-chloro-4-fluoro-benzamide hydrochloride], the IC50 was greater than 0.2 µM.
On to `Cc1cc(N[C@H]2CC[C@@H](NC(=O)c3ccc(Br)o3)CC2)nc2ccccc12` [Example 3083, 5-Bromo-furan-2-carboxylic acid-[cis-4-(4-methyl-quinolin-2-ylamino)-cyclohexyl]-amide hydrochloride], for which the IC50 is less than 0.05 µM.
As to `CN(C)c1nc(N[C@H]2CC[C@@H](NCCc3ccc(Br)cc3OC(F)(F)F)CC2)nc2c1CCCC2` [Example 14, N^2-{cis-4-[2-(4-Bromo-2-trifluoromethoxy-phenyl)-ethylamino]-cyclohexyl}-N^4,N^4-dimethyl-5,6,7,8-tetrahydro-quinazoline-2,4-diamine dihydrochloride], the IC50 is less than 0.05 µM.
Regarding `CN(C)c1ccnc(N[C@H]2CC[C@@H](NC(=O)c3ccc(Cl)c(F)c3)CC2)n1` [Example 3207, 4-Chloro-N-[cis-4-(4-dimethylamino-pyrimidin-2-ylamino)-cyclohexyl]-3-fluoro-benzamide hydrochloride], the IC50 was less than 0.05 µM.
The same measure, in the same setting: to `CN(C)c1ccnc(N[C@H]2CC[C@@H](CNC(=O)c3cccnc3Oc3ccccc3)CC2)n1` [Example 3145, N-[cis-4-(4-Dimethylamino-pyrimidin-2-ylamino)-cyclohexylmethyl]-2-phenoxy-nicotinamide hydrochloride] belongs greater than 0.2 µM; to `CN(C)c1nc(N[C@H]2CC[C@@H](NC(=O)c3cccnc3Oc3ccccc3)CC2)ncc1F` [Example 3140, N-[cis-4-(4-Dimethylamino-5-fluoro-pyrimidin-2-ylamino)-cyclohexyl]-2-phenoxy-nicotinamide hydrochloride], 0.05 to 0.2 µM; to `CN(C)c1ccnc(N[C@H]2CC[C@@H](NC(=O)c3csc([N+](=O)[O-])c3)CC2)n1` [Example 3198, 5-Nitro-thiophene-3-carboxylic acid [cis-4-(4-dimethylamino-pyrimidine-2-ylamino)-cyclohexyl]-amide hydrochloride], less than 0.05 µM.
